Entries after “also recorded” stand apart in the source; their conditions may differ.
Legend:
[1] = Mouse efficacy studies, tolerability assessments (Example 8); format: in vivo
[2] = Rat toxicology study, control mRNA in DV-140-F2 intramuscular (Example 8); format: in vivo, Sprague-Dawley rats
Description: Briefly, Sprague-Dawley rats (n=8) were treated with a control mRNA formulated in DV-140-F2 at 0.03 or 0.3 mg/kg or PBS vehicle. Injections were done 4 times over the course of 13 days and were administered intramuscularly into the hind limb. Whole blood was taken for hematology, and serum taken for clinical chemistry and cytokine analysis at 6 hours post the first dose and final dose, and 2 weeks post the final dose. Additionally, 2 of the animals were sacrificed at 6 hours post the final dose and 2 weeks post final dose and a gross necropsy was performed. Tissue samples were retained and histopathology run on select organs.

[3] = as above; format: in vivo, Sprague-Dawley rats; conditions: Therapeutic dose scaled for rat: 4 doses in 2 weeks, 30 μg RNA IM
[4] = tested on: cervical cancer whose tumors express PD-L1 (CPS≥1); conditions: in combination with chemotherapy, with or without bevacizumab; cited from earlier work
[5] = tested on: cervical cancer whose tumors express PD-L1 (CPS≥1); conditions: single agent, disease progression on or after chemotherapy, KEYNOTE-158; cited from earlier work
HVEM = molecular target: T1, HVEM (Homo sapiens, UniProt Q92956); assay: HVEM activation by LIGHT-transfected cells (HVEM reporter cell line); format: cell-based
T1 construct: host or cells: HVEM reporter cell line (not further described)
T1 sequence (Q92956 39-283): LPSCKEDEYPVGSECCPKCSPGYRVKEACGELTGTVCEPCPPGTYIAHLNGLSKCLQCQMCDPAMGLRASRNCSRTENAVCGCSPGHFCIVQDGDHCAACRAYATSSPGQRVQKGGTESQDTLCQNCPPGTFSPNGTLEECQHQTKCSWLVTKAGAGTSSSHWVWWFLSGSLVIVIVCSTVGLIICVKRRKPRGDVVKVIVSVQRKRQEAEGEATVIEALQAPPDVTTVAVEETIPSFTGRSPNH
Description: FIGS. 1A and 1B depict the inhibition of the activation of membrane-stabilized LIGHT by soluble LIGHT.
FIG. 12 illustrates pre-blocking of soluble LIGHT in HVEM co-HEK transfected cells.
FIGS. 13A-13C are a comparison of HVEM activation with supernatant (blue) or cells (orange) for soluble LIGHT or membrane-stabilized LIGHT.
The incorporation of a modified membrane-stabilized LIGHT into a cancer immunotherapy allows for the effective targeting cancers, such as HPV-driven cancers.
[…] FIGS. 13A-13C show increased function of membrane-stabilized LIGHT on cells with HVEM reporter cell line and FIGS. 14A and 14B show increased cellular expression of membrane-stabilized LIGHT.

CD3+ T cells = assay: T cell proliferation in co-culture with LIGHT-transfected HEK cells (Example 1); format: cell-based, human; conditions: versus soluble (Wt) LIGHT
Description: (§1) LIGHT variants were formulated in MessengerMax mRNA Transfection Reagent. Human embryonic kidney (HEK) cells were transfected with the LIGHT variant constructs for cell surface expression of LIGHT. CellTrace Violet (Thermo Fischer Scientific) was used to label CD3+ T cells from the resulting peripheral blood mononuclear cells (PBMC). 100 ng/mL of soluble CD3 Antibody was added to the resulting labeled CD3+ T cells. The T cell proliferation and interferon-gamma (IFN-7) secretion was evaluated about 5 days of co-culture.

primary human T cells = assay: Human T cell proliferation, ENG or WT hLIGHT mRNA with hIL-12 mRNA (Example 1A); format: cell-based; conditions: anti-CD3 30 or 100 ng/mL, 4 days, relative to IL-12 and WT hLIGHT
Description: This study was designed to compare the ability of ENG and WT hLIGHT mRNAs in combination with hIL-12 mRNA to stimulate primary human T cell proliferation. Human T cells were isolated from PBMCs from 1 healthy donor and stained with CellTrace Violet. HEK293 cells were transfected with hIL-12 mRNA (RNA-683) and WT hLIGHT (RNA-786) or ENG hLIGHT (RNA-1359) mRNA formulated in Lipofectamine MessengerMAX (0.5 ng each mRNA per 1000 cells). Control cells were transfected with noncoding mRNA control in the same way. Transfected HEK293 cells were cocultured with the T cells in a 1:5 ratio in the presence of 30 ng/mL or 100 ng/mL anti-CD3 antibody to mimic antigen specific TCR engagement for 4 days at 37° C., 5% CO2. CD8+ T cell proliferation was assessed by flow cytometry and the proliferation index was calculated. […] The results are shown in FIG. 10A, where ENG=engineered; HEK=human embryonic kidney; IL-12=interleukin-12; PBMC=peripheral blood mononuclear cell; WT=wildtype. The data in FIG. 10A represent mean±standard deviation (n=4). Statistical analysis was performed by unpaired student's t-test (P<0.05).

HEK cells = assay: Surface expression of LIGHT on transfected cells by flow cytometry using HVEM binding; format: cell-based, human; conditions: compared to soluble (wild type) LIGHT
Description: FIG. 2A-2D are graphs illustrating the membrane-bound protein produced by the membrane-stabilized LIGHT generated according to an aspect of this disclosure as compared to soluble LIGHT.
FIGS. 14A and 14B depict the assessment of surface expression of soluble LIGHT or membrane-stabilized LIGHT by flow cytometry using HVEM binding.
This enhanced membrane stability for the disclosed membrane-stabilized LIGHT may increase the beneficial activity of LIGHT.
as §1

[6] = Therapeutic dose in mouse: 3 doses 7 days apart, ~1-2 μg RNA IT or IM
[7] = High dose in rat: 4 doses in 2 weeks, 100 μg RNA IM

In the case of `CCCCCCCCCCN(CC(N)=O)C(=O)CN(CCCCCCCCCC)C(=O)CN(CCCCCCCCCC)C(=O)CN(CCCCCCCCCC)C(=O)CNCCO` [Compound 140, N-(2-amino-2-oxoethyl)-N-decyl-2-(N-decyl-2-(N-decyl-2-(N-decyl-2-((2-hydroxyethyl)amino)acetamido)acetamido)acetamido)acetamide], the Body weight [1, 6] is reported as “No changes compared”, the “Injection site reactions or other clinical observations” value [1, 6] is reported as “None observed” and the tolerability ([1]; mouse efficacy studies) is reported as “well-tolerated”. The Gross organ pathology [2, 7] was “None observed”, the “Injection site reactions or other clinical observations” value [2, 7] was “None observed” and the Clinical chemistries ([2]; High dose in rat: 4 doses in 2 weeks, 100 μg RNA IM, compared to control) was “No meaningful changes”. For the same molecule, the Hematology parameters ([2]; High dose in rat: 4 doses in 2 weeks, 100 μg RNA IM, return to baseline by D30) was “Some transient changes”, the Serum cytokines ([2]; High dose in rat: 4 doses in 2 weeks, 100 μg RNA IM, subset of cytokines, return to baseline by D30) was “Elevated levels in subset” and the tolerability ([2]; rat toxicology studies) was “well-tolerated”. The Body weight [3] was “No changes compared”, the Gross organ pathology [3] was “None observed” and the “Injection site reactions or other clinical observations” value [3] was “None observed”. For the same molecule, the Clinical chemistries ([3]; compared to control) was “No meaningful changes”, the Hematology parameters ([3]; compared to control) was “No changes compared” and the Serum cytokines ([3]; compared to control) was “No changes compared”.

For pembrolizumab [KEYTRUDA], the overall survival [4] is given as “improvements” and the objective response [5] is given as “around 14%”.

B1: soluble LIGHT: Wild-type soluble human LIGHT (protein)
chain: MEESVVRPSVFVVDGQTDIPFTRLGRSHRRQSCSVARVGLGLLLLLMGAGLAVQGWFLLQLHWRLGEMVTRLPDGPAGSWEQLIQERRSHEVNPAAHLTGANSSLTGSGGPLLWETQLGLAFLRGLSYHDGALVVTKAGYYYIYSKVQLGGVGCPLGLASTITHGLYKRTPRYPEELELLVSQQSPCGRATSSSRVWWDSSFLGGVVHLEAGEEVVVRVLDERLVRLRDGTRSYFGAFMV
modifications: Human Wild Type LIGHT (786) aa
For B1, the “effect of soluble LIGHT on HVEM activation/signaling by membrane-stabilized LIGHT” value (HVEM; presence of soluble LIGHT) was “decreases; also recorded: competes for HVEM binding and reduces signaling”.

B2: ENG hLIGHT: mRNA encoding human LIGHT with amino acids 66-92 replaced by 10 amino acid linker …; membrane-stabilized (nucleic acid)
chain: AGGCAUAGAAGUCGAGACACAGCCACUAAGUAAGCCACCAUGGAGGAGAGCGUGGUGCGGCCUAGCGUGUUCGUGGUCGACGGCCAGACCGACAUCCCCUUCACCAGACUGGGAAGAAGCCACAGAAGGCAGUCUUGCUCCGUGGCCAGAGUGGGCCUGGGCCUGCUCCUGCUGCUGAUGGGCGCUGGCCUGGCCGUGCAAGGCUGGUUCCUGCUGCAGCUGCACUGGCGGCUGGGCAGCAGCGCCUCUACCGAUAAGACCCACACCGUGAACCCUGCCGCCCACCUGACCGGCGCCAACAGCUCUCUGACCGGAUCUGGCGGACCUCUGCUGUGGGAGACACAGCUGGGCCUUGCUUUUCUGCGGGGCCUGAGCUACCACGACGGCGCUCUGGUGGUUACAAAGGCCGGCUACUACUACAUCUACAGCAAGGUGCAGCUGGGAGGCGUGGGUUGUCCACUGGGACUGGCCAGCACAAUCACACACGGCCUUUAUAAGCGGACCCCUAGAUACCCCGAGGAACUGGAACUGCUGGUCUCCCAGCAGAGCCCUUGCGGCAGAGCCACAAGCAGCAGCAGAGUGUGGUGGGACAGCUCAUUCCUGGGCGGCGUGGUGCAUCUGGAAGCCGGCGAGAAAGUGGUGGUCAGAGUGCUGGACGAGAGACUGGUGCGGCUGAGAGAUGGGACCCGCUCCUACUUCGGCGCCUUUAUGGUGUGAUAAGCGCCGCCUCCGGGACAGUGCACCCAGGCUGCGGCCCCUCCCCCGUCCUGGAGGUUCCCCAGCCCCACUUACCGCUUAAUGCGCCAAUAAACCAAUGAACGAAGCAAAAAAAAAAAAAAAAAAAAAAAAAAAAAAAAAAAAAAAAAAAAAAAAAAAAAAAAAAAAAAAAAAAAAAAAAAAAAAAAAAAAAAAAAAAAAAAAAAAAAAAAAAAAAAAAAAAAAAAAAAAAAAAAAAAAAAAAAAAAAAAAAAAAAAAAAAAAAAAAAAAAAAAAA
modifications: LIGHT ICD TM 1-66 RLG … LIGHT 92-240 1359, aka 1495 nt
notes: mRNA encoding human LIGHT with amino acids 66-92 replaced by 10 amino acid linker …; membrane-stabilized
With B2 the T-cell proliferation (CD3+ T cells; listed as 1359) was “increase”, the T-cell proliferation (CD3+ T cells; listed as ENG LIGHT mRNA) was “increased” and the “CD8+ T cell proliferation and survival” value (primary human T cells) was “increased”. For the same molecule, the “bioactivity on transfected cells” value (HVEM; compared to WT LIGHT mRNA) was “higher”, the soluble fraction (HEK cells) was “significantly lower” and the “cell-surface expression of membrane-bound protein” value (HEK cells; listed as ENG LIGHT mRNA) was “higher”. The “cell-surface expression of membrane-bound protein” value (HEK cells; listed as Engineered LIGHT) was “significantly higher”.

B3: 1356: mRNA encoding LIGHT ICD + TM (1-66) + (Gly4Ser)2 + LIGHT 92-240 (nucleic acid)
chain: AGGCAUAGAAGUCGAGACACAGCCACUAAGUAAGCCACCAUGGAAGAGUCUGUGGUCAGACCUAGCGUGUUCGUGGUCGACGGCCAGACCGACAUCCCCUUCACCAGACUGGGAAGAAGCCAUAGAAGACAGAGCUGCAGCGUGGCCAGAGUGGGCCUCGGCCUGCUGCUGCUGCUGAUGGGCGCUGGCCUGGCCGUGCAAGGCUGGUUCCUGCUGCAGCUGCACUGGCGGCUGGGCGGAGGCGGCGGCUCUGGCGGCGGAGGCUCCGUGAACCCCGCCGCCCACCUGACCGGCGCCAACAGCAGCCUGACAGGCAGCGGCGGUCCUCUGCUGUGGGAAACCCAGCUGGGACUGGCUUUUCUGAGAGGCCUGAGCUACCACGACGGCGCCCUGGUGGUGACCAAGGCCGGCUAUUACUACAUCUACAGCAAGGUGCAGCUGGGCGGCGUUGGAUGUCCUCUGGGCCUGGCUUCUACAAUCACCCACGGCCUGUACAAGCGGACCCCUAGAUACCCUGAGGAACUGGAGCUGCUGGUGUCCCAGCAGUCCCCAUGCGGCCGGGCCACAAGCUCUUCUAGAGUGUGGUGGGAUAGCAGCUUCCUGGGCGGAGUGGUGCACCUCGAGGCCGGAGAGAAAGUGGUGGUGCGGGUGCUGGAUGAGAGACUGGUUAGGCUGCGCGACGGCACACGGAGCUACUUCGGCGCCUUUAUGGUGUGAUAAGCGCCGCCUCCGGGACAGUGCACCCAGGCUGCGGCCCCUCCCCCGUCCUGGAGGUUCCCCAGCCCCACUUACCGCUUAAUGCGCCAAUAAACCAAUGAACGAAGCAAAAAAAAAAAAAAAAAAAAAAAAAAAAAAAAAAAAAAAAAAAAAAAAAAAAAAAAAAAAAAAAAAAAAAAAAAAAAAAAAAAAAAAAAAAAAAAAAAAAAAAAAAAAAAAAAAAAAAAAAAAAAAAAAAAAAAAAAAAAAAAAAAAAAAAAAAAAAAAAAAAAAAAAA
modifications: LIGHT ICD TM 1-66 RLG Gly4Ser 2 LIGHT 92-240 1356 nt
With B3 the T-cell proliferation (CD3+ T cells) was “increase”.
